Measurements published in paper PMC9776381, “A Large-Scale High-Throughput Screen for Modulators of SERCA Activity” (Biomolecules, 2022).
“Also recorded” adds a separate entry of the source.

Experiments:
[1] = biological target: T1, SERCA1a (rabbit light skeletal SR vesicles) (Oryctolagus cuniculus, UniProt P04191); assay: NADH-coupled Ca-ATPase activity assay, skeletal SR (CRC at pCa 5.4); format: biochemical; details: n = 3; for Skeletal SR ATPase Activity Percent Increase: maximal effect of CRC 0.05 to 50 µM, pCa 5.4, relative to DMSO, mean ± SD; for EC50: pCa 5.4, mean ± SD
T1 construct: rabbit muscles were freshly harvested from the back and hind leg of New Zealand White rabbits and purified using a sucrose gradient; from tissue; host or cells: rabbit (New Zealand White) back and hind leg skeletal muscle, light SR vesicles
T1 sequence (P04191 1-994 isoform P04191-2): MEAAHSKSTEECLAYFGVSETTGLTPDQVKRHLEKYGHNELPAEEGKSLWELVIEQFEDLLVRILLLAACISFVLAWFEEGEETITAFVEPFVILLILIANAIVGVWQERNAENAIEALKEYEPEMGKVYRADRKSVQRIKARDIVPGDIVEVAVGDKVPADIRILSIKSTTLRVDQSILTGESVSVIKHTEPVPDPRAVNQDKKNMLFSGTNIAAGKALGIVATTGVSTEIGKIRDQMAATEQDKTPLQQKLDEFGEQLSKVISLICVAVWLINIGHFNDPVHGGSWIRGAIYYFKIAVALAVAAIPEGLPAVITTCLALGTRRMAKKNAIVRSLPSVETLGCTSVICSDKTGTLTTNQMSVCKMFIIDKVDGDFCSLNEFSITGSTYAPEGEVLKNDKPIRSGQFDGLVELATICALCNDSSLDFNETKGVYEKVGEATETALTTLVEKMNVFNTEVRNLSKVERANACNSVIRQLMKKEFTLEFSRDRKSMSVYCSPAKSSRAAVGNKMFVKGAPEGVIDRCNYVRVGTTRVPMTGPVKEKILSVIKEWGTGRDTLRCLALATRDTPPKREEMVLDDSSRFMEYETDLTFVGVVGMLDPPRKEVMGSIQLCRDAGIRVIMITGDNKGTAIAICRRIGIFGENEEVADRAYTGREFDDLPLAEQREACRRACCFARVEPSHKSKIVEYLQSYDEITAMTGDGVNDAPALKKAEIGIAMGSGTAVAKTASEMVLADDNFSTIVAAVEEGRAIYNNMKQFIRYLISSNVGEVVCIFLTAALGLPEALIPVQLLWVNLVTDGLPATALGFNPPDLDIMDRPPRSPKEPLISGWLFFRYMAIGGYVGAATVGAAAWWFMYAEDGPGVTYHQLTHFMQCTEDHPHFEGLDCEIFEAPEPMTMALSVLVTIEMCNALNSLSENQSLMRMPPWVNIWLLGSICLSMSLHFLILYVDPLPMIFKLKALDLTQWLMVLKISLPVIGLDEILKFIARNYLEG
Protocol: (§1) For skeletal SR, rabbit muscles were freshly harvested from the back and hind leg of New Zealand White rabbits and purified using a sucrose gradient. The resulting light skeletal SR contains 80% SERCA, as a proportion of total protein content. Cardiac SR vesicles were isolated from fresh porcine left ventricular tissue.
(§2) Functional assays were performed using rabbit light skeletal sarcoplasmic (SR) vesicles. For high-throughput NADH-coupled screening, assay mix containing a final concentration of 50 mM MOPS (pH 7.0), 100 mM KCl, 1 mM EGTA, 0.2 mM NADH, 1 mM phosphoenol pyruvate, 10 IU/mL of pyruvate kinase, 10 IU/mL of lactate dehydrogenase, 1 µM of the calcium ionophore A23187, 4 µg/mL skeletal SR, and added CaCl2 to obtain pCa 5.4 was dispensed into 384-well DIVERSet assay plates containing 50 nL of compound or DMSO using a FlexDrop Precision liquid dispenser (Perkin Elmer, Waltham, Massachusetts). Plates were sealed, covered from light, and incubated at room temperature for 20 min. The assay was then started by dispensing MgATP (termed “initiation mix”), to a final concentration of 5 mM in each well (80 µL total assay volume) with the FlexDrop liquid dispenser (Perkin Elmer). The time dependence of absorbance was measured at 340 nm in a SpectraMax Plus384 microplate spectrophotometer (Molecular Devices, Sunnyvale, CA). For follow-up concentration response curves of Hit compounds, 400 nL of either compound or DMSO was dispensed into each well using an Echo liquid dispenser (Beckman Coulter). Testing dose-dependent compound effects on rabbit skeletal SR vesicles was done using the same method, as described above in 384-well plates. Determining compound effects on cardiac SR vesicles was done in a similar method as above, with the exception of 10 µg/mL of cardiac SR incubated in assay mix consisting of a final concentration of 50 mM MOPS (pH 7.0), 100 mM KCl, 1 mM EGTA, 1 µM of the calcium ionophore A23187, and added CaCl2 to the desired free calcium values. After a 20 min incubation, the “initiation mix”, containing a final concentration of 0.2 mM NADH, 1 mM phosphoenol pyruvate, 10 IU/mL of pyruvate kinase, 10 IU/mL of lactate dehydrogenase, and 5mM MgATP, was dispensed into each well.
The initial screen assay was performed with compounds at 10 µM. To better study the selected Hit compounds for their activation potential, we performed ATPase analyses (in triplicate) over a range of Hit concentrations (0.05 to 50 µM), generating concentration-response curves (CRCs) to determine maximal effects and EC50 (Figure 2). We used the same Ca^2+ concentration (pCa 5.4) as in the screening assays, thus focusing on the effects on the maximal velocity of SERCA. Two of the selected Hits yielded no response in follow-up assays, probably due to a mismatch in chemical composition between the library compound and the subsequently ordered compound (DS95401435 and DS41547941). This type of discrepancy is a typical hurdle in the screening process. Each of the other 19 compounds produced a substantial increase in ATPase activity, ranging from 30% to 72% (Table 1 and Supporting Information, Figure S1), as expected due to similarity of the CRC assay to the initial screen.

[2] = biological target: T2, SERCA1a (skeletal SR vesicles) (Oryctolagus cuniculus, UniProt P04191); assay: Oxalate-supported Ca2+-uptake assay, skeletal SR (CRC at pCa 5.4); format: biochemical, rabbit; details: for Skeletal SR Ca^2+ Uptake Activity Percent Increase: maximal effect of CRC; for Skeletal SR Ca^2+ Uptake Activity Percent Increase / EC50: pCa 5.4, mean ± SD, dash = no observable effect; for EC50: read-out: Skeletal SR Ca^2+ Uptake Activity EC50; for Ca^2+ uptake effect (in words), SR type not given: uncoupling compounds, cluster 5, tissue not stated; for Effect on Ca^2+ uptake activity in skeletal SR (in words): pCa 5.4
T2 construct: rabbit muscles were freshly harvested from the back and hind leg of New Zealand White rabbits and purified using a sucrose gradient; from tissue; host or cells: rabbit (New Zealand White) back and hind leg skeletal muscle, light SR vesicles
T2 sequence (P04191 1-994 isoform P04191-2): as above
Protocol: as §1
(§3) To determine compound effect on the Ca^2+-uptake activity of SERCA1a and SERCA2a, we used an oxalate-supported assay. A solution containing 50 mM MOPS (pH 7.0), 100 mM KCl, 30 mg/mL sucrose, 1 mM EGTA, 10 mM potassium oxalate, 2 µM Fluo-4, 30 µg/mL cardiac SR vesicles or 12 μg/mL skeletal SR vesicles, and CaCl2 calculated to reach the desired free [Ca^2+] was dispensed into 384-well black walled, transparent bottomed plates (Greiner Bio-One) containing the tested small molecule and incubated at 21 °C for 20 min while covered and protected from light. To start the reaction, MgATP was added to a final concentration of 5 mM, and the decrease in 485-nm excited fluorescence was monitored at 520 nm for 15 min using a FLIPR Tetra (Molecular Devices, San Jose, CA, USA).
While Ca^2+-dependent ATPase activity is a direct measure of SERCA activity, coupling of ATP hydrolysis to transport of Ca^2+ across the SR membrane is essential for the role of SERCA in cellular physiology. Therefore, we next asked whether our ATPase-based HTS assay could successfully identify compounds that also increase Ca^2+ uptake of SERCA.

[3] = biological target: T3, SERCA2a (cardiac SR vesicles) (Sus scrofa, UniProt P11607); assay: NADH-coupled Ca-ATPase activity assay, cardiac SR (CRC at pCa 5.4); format: biochemical, porcine; details: pCa 5.4, mean ± SD, n = 3; for Cardiac SR ATPase Activity Percent Increase: maximal effect of CRC
T3 construct: Cardiac SR vesicles were isolated from fresh porcine left ventricular tissue; from tissue; host or cells: porcine left ventricular tissue, cardiac SR vesicles
T3 sequence (P11607 1-997 isoform P11607-2): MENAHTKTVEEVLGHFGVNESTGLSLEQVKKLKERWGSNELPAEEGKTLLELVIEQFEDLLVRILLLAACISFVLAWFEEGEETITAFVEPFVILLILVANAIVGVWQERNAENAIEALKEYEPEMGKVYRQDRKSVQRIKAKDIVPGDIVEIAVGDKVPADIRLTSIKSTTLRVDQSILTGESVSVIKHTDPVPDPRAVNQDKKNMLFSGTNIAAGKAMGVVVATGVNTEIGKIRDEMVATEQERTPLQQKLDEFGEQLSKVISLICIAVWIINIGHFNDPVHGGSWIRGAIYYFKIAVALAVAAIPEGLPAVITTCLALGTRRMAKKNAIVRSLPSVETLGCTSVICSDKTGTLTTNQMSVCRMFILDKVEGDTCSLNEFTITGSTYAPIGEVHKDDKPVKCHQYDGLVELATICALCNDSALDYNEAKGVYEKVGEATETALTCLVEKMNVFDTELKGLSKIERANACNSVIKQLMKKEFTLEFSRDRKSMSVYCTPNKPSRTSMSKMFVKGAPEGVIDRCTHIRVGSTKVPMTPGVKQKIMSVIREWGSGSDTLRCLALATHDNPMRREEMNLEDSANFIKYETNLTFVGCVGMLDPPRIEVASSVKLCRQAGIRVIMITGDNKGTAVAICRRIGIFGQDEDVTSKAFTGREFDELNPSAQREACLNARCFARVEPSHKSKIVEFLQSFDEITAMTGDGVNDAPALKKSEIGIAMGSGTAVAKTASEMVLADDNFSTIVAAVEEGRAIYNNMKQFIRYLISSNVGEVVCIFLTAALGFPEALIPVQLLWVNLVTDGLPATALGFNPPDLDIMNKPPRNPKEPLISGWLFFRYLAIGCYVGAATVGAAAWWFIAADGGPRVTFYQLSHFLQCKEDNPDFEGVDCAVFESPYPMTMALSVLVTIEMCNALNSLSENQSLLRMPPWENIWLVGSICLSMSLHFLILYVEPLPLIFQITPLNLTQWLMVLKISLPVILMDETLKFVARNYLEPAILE
Protocol: as §1, §2
While initial screening was performed in skeletal SR enriched with the SERCA1a isoform, high sequence and structural homology with the cardiac SERCA2a isoform predicts a potential for cross reactivity of the Hit compounds. To test this hypothesis, we performed ATPase analyses with cardiac SR microsomes, which are enriched for SERCA2a.

[4] = biological target: T3, SERCA2a (cardiac SR vesicles); assay: Oxalate-supported Ca2+-uptake assay, cardiac SR (CRC at pCa 5.4); format: biochemical, porcine; details: for Cardiac SR Ca^2+ Uptake Activity Percent Increase: maximal effect of CRC; for Cardiac SR Ca^2+ Uptake Activity Percent Increase / EC50: pCa 5.4, mean ± SD, dash = no observable effect; for EC50: read-out: Cardiac SR Ca^2+ Uptake Activity EC50
Protocol: as §1, §3
To determine whether the observed increases in SERCA2a ATPase activity translate to Ca^2+ uptake function, we applied our Ca^2+ transport assay to test our selected Hit compounds in cardiac SR (Table 1). Indeed, 16 of the 19 compounds yielded a clear increase in Ca^2+ uptake activity. In fact, eight compounds generated an increase at least 50% greater in cardiac SR than in skeletal SR. Three compounds had either an inhibitory or no effect on Ca^2+ transport, and two of these were also non-activating compounds in skeletal SR.

Row | Skeletal SR ATPase Activity Percent Increase [1] [%] | EC50 [1] [µM] | Skeletal SR Ca^2+ Uptake Activity Percent Increase ([2]; n = 3) [%] | EC50 ([2]; n = 3) [µM] | Cardiac SR ATPase Activity Percent Increase [3] [%] | EC50 [3] [µM] | Increase in Ca^2+ uptake in cardiac SR vs. skeletal [4] | Cardiac SR Ca^2+ Uptake Activity Percent Increase ([4]; n = 3) [%] | EC50 ([4]; n = 3) [µM] | Ca^2+ uptake effect (in words), SR type not given [2] | Compound classification from ATPase vs. Ca^2+ uptake CRCs, skeletal SR ([2]; skeletal SR, n = 3) | Effect on Ca^2+ uptake activity in skeletal SR (in words) ([2]; skeletal SR, listed as DS33804556) | Compound classification from ATPase vs. Ca^2+ uptake CRCs, cardiac SR ([4]; cardiac SR, n = 3) | Structure (SMILES) | Effect on Ca^2+ uptake activity in skeletal SR (in words) ([2]; skeletal SR) | Effect on Ca^2+ uptake activity in cardiac SR (in words) ([4]; cardiac SR, pCa 5.4)
1 | 36 ± 4 | 3.2 ± 0.6 | 8 ± 2 | 1.1 ± 0.6 | 36 ± 4 | 2.9 ± 0.6 | greater than 2 fold | 21 ± 10 | 1.8 ± 2 | – | – | – | – | CN(Cc1ccccc1)c1ncccc1CNc1ncccc1Cl [Compound 13] | – | –
2 | 25 ± 3 | 3.3 ± 0.6 | 8 ± 2 | – | 56 ± 3 | 5.2 ± 0.5 | greater than 2 fold | 28 ± 5 | 2.5 ± 0.9 | – | – | – | – | COc1ccccc1CNc1nc(C(C)(C)C)nc2c1cnn2C [Compound 14] | – | –
3 | 30 ± 1 | 30 ± 12 | – | – | 46 ± 6 | 16 ± 3 | – | 6 ± 5 | 5 ± 11 | little to no Ca^2+ uptake effect | – | – | – | C=C(C)COc1cccc(C(=O)NCCn2cccn2)c1 [Compound 15] | – | –
4 | 25 ± 1 | 3 ± 0.3 | −10 ± 2 | 7 ± 13 | 26 ± 2 | 2.2 ± 0.4 | – | −27 ± 3 | 8.9 ± 2 | sizeable inhibitor effect | Uncoupling Compounds | inhibitory | Uncoupling Compounds | COc1ccc(CCNC(=O)c2oc3c(Cl)cc(C)cc3c2C)cc1 [Compound 16] | inhibition of Ca^2+ uptake activity; also recorded: inhibitor of Ca^2+ uptake | inhibition of Ca^2+ uptake activity; also recorded: inhibitor of Ca^2+ uptake
5 | 39 ± 1 | 5.2 ± 0.3 | 8.9 ± 0.1 | 1.1 ± 0.3 | 37 ± 1 | 4.3 ± 0.3 | – | 12 ± 1 | 0.9 ± 0.2 | – | – | – | – | COc1cccc(-c2nn(-c3ccccc3)cc2CN(Cc2c(C)nn(C)c2C)C2CC2)c1 [Compound 18] | – | –
6 | 42 ± 2 | 7.3 ± 0.8 | 7.2 ± 0.1 | 1.8 ± 0.7 | 22 ± 2 | 6.3 ± 0.4 | – | 8 ± 1 | 2.4 ± 0.6 | – | – | – | – | OCc1ccccc1-c1ccc(-c2nc(CCc3ccccc3)no2)cn1 [Compound 19] | – | –
